Data set [1] relates to Oryctolagus sp. To be noted: for LD50: acute.
Data set [2] relates to Rattus norvegicus. The settings on record: for LD50 / LC50: acute.
In data set [3] the test system is Mus musculus. To be noted: for LD50: acute.
For data set [4], the system named is Rattus norvegicus. The settings on record: subchronic, oral.
Where [5] appears, read: reproduction developmental, duration: 2 weeks, inhalation, Sprague-Dawley.

Values joined by “and” are separate entries in the source; they are usually repeats but may differ in a detail not shown here. Equal values may be shown once. Some results are limits rather than exact numbers.

By NOAEL is commonly meant the highest dose or exposure tested at which no adverse effect was seen. For orientation: LD50 means the dose at which mortality reaches 50%. As for `O=[N+]([O-])c1ccc(Cl)cc1` [1-Chloro-4-nitrobenzene], the NOAEL in data set [1] (developmental, duration: 13 hours, oral, gavage, New Zealand) is 15 mg/kg-day; in data set [2] (developmental, duration: 14 days, oral, gavage, Sprague-Dawley), 15 mg/kg-day; in data set [2] (reproduction developmental, duration: 14 days, oral, gavage, F, Sprague-Dawley), less than 5 mg/kg-day; in data set [2] (reproduction developmental, duration: 167 days, oral, gavage, Sprague-Dawley, generation: F0), 0.7 mg/kg-day; in data set [2] (reproduction developmental, duration: 167 days, oral, gavage, Sprague-Dawley, generation: F1) it was 5 mg/kg-day; in data set [2] (reproduction developmental, duration: 167 days, oral, gavage, Sprague-Dawley, generation: F2) it was 5 mg/kg-day. Besides, the LD50 in data set [2] (oral, gavage, Sprague-Dawley) came out at 530 mg/kg.

A word on the LOAEL: it is the lowest dose or exposure tested at which an adverse effect was seen. `CCCCCCCCCCCCCCCCN.F` [1-Hexadecanamine, hydrofluoride] displayed an LOAEL in data set [1] (reproduction developmental, duration: 13 days, oral, gavage, F, New Zealand) of 1.2 mg/kg-day. For the same compound, the NOAEL in data set [2] (reproduction developmental, duration: 10 days, oral, gavage, F, Long-Evans) amounted to 30 mg/kg-day; in data set [2] (reproduction developmental, oral, gavage, Long-Evans, generation: F0) it was 6 mg/kg-day; in data set [2] (reproduction developmental, oral, gavage, Long-Evans, generation: F1) it was 30 mg/kg-day.

For the compound `c1ccc2sc(SSc3nc4ccccc4s3)nc2c1` [2,2'-Dithiobisbenzothiazole], the LD50 in data set [3] (injection, Intraperitoneal) is 2250 mg/kg; in data set [3] (injection, intravenous), 180 mg/kg; in data set [1] (oral), 6200 mg/kg; in data set [2] (injection, Intraperitoneal), 3000 mg/kg and 2600 mg/kg. Further, the NOAEL amounted to 10 mg/kg-day in data set [3] (developmental, oral, N strain); 10 mg/kg-day in data set [2] (reproduction developmental, oral, Wistar, hybrid, generation: F1); 127 mg/kg-day in data set [2] (short-term, duration: 22 days, oral, diet, F, Wistar). Also, the “NOAEL (% diet)” value in data set [2] (developmental, duration: 22 days, oral, diet, Wistar) amounted to 1; in data set [2] (reproduction developmental, duration: 22 days, oral, diet, F, Wistar), 0.2.

Turning to `Cc1cc(C)c(O)c(C)c1` [2,4,6-Trimethylphenol], the LD50 in data set [1] (dermal, New Zealand) was more than 2000 mg/kg; in data set [2] (oral, gavage), more than 2000 mg/kg. In addition, the NOAEL in data set [2] (reproduction developmental, duration: 4 weeks, oral, gavage, F, Sprague-Dawley) was not below 200 mg/kg-day; in data set [2] (reproduction developmental, duration: 4 weeks, oral, gavage, Sprague-Dawley, generation: F0), not below 200 mg/kg-day; in data set [2] (reproduction developmental, duration: 4 weeks, oral, gavage, Sprague-Dawley, generation: F1) it was not below 200 mg/kg-day. In addition, the NOEL in data set [4] (gavage, M, Sprague-Dawley, Clinical Observation: Salivation + Histopathology: Stomach/forestomach- Squamous cell metaplasia Stomach/forestomach- Edema Stomach/…) was 10 mg/kg-day.

On to `CC(C)CC(=O)CC(C)CC(C)C` (stereo not drawn) [2,6,8-Trimethyl-4-nonanone], for which the LD50 in data set [1] (dermal, occlusive) was found to be 9030 mg/kg; in data set [2] (oral, gavage), 8470 mg/kg. The NOAEL in data set [2] (reproduction developmental, oral, gavage, CD, generation: F1) is 300 mg/kg-day; in data set [2] (reproduction developmental, oral, gavage, F, CD) it was 100 mg/kg-day.

`CC(=O)Oc1cccc(Oc2ccc(C(F)(F)F)cc2Cl)c1` [2-Chloro-1-(3-acetoxyphenoxy)-4-(trifluoromethyl)benzene]: the LD50 in data set [1] (dermal, occlusive, New Zealand) is more than 200 mg/kg; in data set [2] (oral, Crj:CD) it was more than 500 mg/kg. Besides, in data set [2] (Inhalation, Wistar), the LC50 is more than 4.13 µg/mL.

As to `Cc1cccc([N+](=O)[O-])c1` [3-Nitrotoluene], the LD50 in data set [3] (oral) is 1230 mg/kg; in data set [1] (dermal, New Zealand), more than 20000 mg/kg; in data set [2] (dermal) it was more than 1160 mg/kg; in data set [2] (oral), 2120 mg/kg and 1070 mg/kg and 1780 mg/kg; in data set [2] (oral, Sprague-Dawley), 1070 mg/kg; in data set [2] (oral, gavage, Wistar), 2200 mg/kg and 2000 mg/kg. For the same compound, the LOAEL in data set [3] (subchronic, duration: 13 weeks, oral, diet, B6C3F1) was ≥ 123 mg/kg-day and ≤ 133 mg/kg-day; in data set [2] (subchronic, duration: 13 weeks, oral, diet, F, Fischer 344), 60 mg/kg-day; in data set [2] (subchronic, duration: 13 weeks, oral, diet, M, Fischer 344) it was 60 mg/kg-day. Further, the LC50 in data set [2] (inhalation) was more than 2.42 µg/mL; in data set [2] (inhalation, Sprague-Dawley) it was more than 881 mg/m3. Besides, the NOEL is less than 48 mg/kg-day in data set [4] (diet, F, Fischer 344, Body Weight Changes: decrease + Food Consumption: decrease + Hematology: Hct decrease, Hgb decrease, RBC decrease, MCV increase, MCH …) and less than 60 mg/kg-day in data set [4] (diet, M/F, Fischer 344, Body Weight Changes: decrease + Food Consumption: decrease + Hematology: Hct decrease, Hgb decrease, RBC decrease, MCV increase, MCH …).

With `CCCCCCCCc1ccc(Nc2ccc(CCCCCCCC)cc2)cc1` [4,4'-Dioctyldiphenylamine], the LD50 in data set [1] (dermal, occlusive, New Zealand) is more than 7940 mg/kg; in data set [2] (oral, gavage, Sprague-Dawley), more than 7940 mg/kg. In data set [4] (gavage, M, Sprague-Dawley, Hematology: PT increase(tendency) APTT increase), the NOEL was 25 mg/kg-day.

On to `CCCCCCCCCCCCCOC(=O)CCCCC(=O)OCCCCCCCCCCCCC` [Bis(tridecyl) adipate], for which the LD50 is more than 2000 mg/kg in data set [1] (dermal); more than 5000 mg/kg in data set [1] (dermal, semiocclusive, New Zealand); more than 16000 mg/kg in data set [2] (oral, Sherman Wistar); more than 15000 mg/kg in data set [2] (oral, gavage, Wistar). This compound showed an LC50 in data set [2] (Inhalation, Sprague-Dawley) of more than 3.2 µg/mL. Moreover, the NOAEL in data set [2] (reproduction developmental, duration: 19 days, dermal, Sprague-Dawley) came out at 800 mg/kg-day; in data set [2] (subchronic, duration: 13 weeks, dermal, Sprague-Dawley), 800 mg/kg-day.

`CCCCOC(=O)CC` [Butyl propionate]: the LD50 was more than 14000 mg/kg in data set [1] (dermal, occlusive, New Zealand); more than 14000 mg/kg in data set [1] (dermal, occlusive, albino); more than 2000 mg/kg in data set [2] (dermal, occlusive, Fischer 344); more than 5000 mg/kg in data set [2] (oral, gavage, Fischer 344); 11000 mg/kg in data set [2] (oral, gavage, Sprague-Dawley); more than 14000 mg/kg in data set [2] (oral, gavage, Wistar). Further, the LC50 in data set [2] (oral, gavage, Sprague-Dawley) amounted to 12300 mg/kg. Besides, the NOAEL in data set [2] (developmental, duration: 10 days, inhalation, Sprague-Dawley) is not below 10600 mg/m3; in data set [2] (setting [5]), 2660 mg/m3. Moreover, the LOAEL in data set [2] (setting [5]) came to 13300 mg/m3; in data set [2] (reproduction developmental, duration: 13 weeks, inhalation, Sprague-Dawley) it was 3990 mg/m3; in data set [2] (short-term, duration: 11 days, inhalation, Fischer 344), 4260 mg/m3.
